# Measured values as given in ChEMBL document CHEMBL1201862, “PubChem BioAssay data set” (2004).
#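 Five compound concentrations were applied to cells in 96-well plates for 48 hours; endpoints were derived by simple linear interpolation of the resulting dose-response curve. At the GI50, growth is halved.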 The source made the active and inactive calls. Cut-off read from the data, not from the text of the source: active = GI50 up to about 1.1 µM and inactive = higher.
# Assays:
# Experiment in all cases: DTP human tumour cell line panel, 48 h
# [1] = system: SNB-75
# [2] = system: PC-3
# [3] = system: SF-268
# [4] = system: MDA-N
# [5] = system: SF-539
# [6] = system: MOLT-4
# [7] = system: NCI-H460
# [8] = system: HCC 2998
# [9] = system: DU-145
# [10] = system: MDA-MB-231
# [11] = system: SF-295
# [12] = system: MCF7
# [13] = system: OVCAR-4
# [14] = system: HCT-15
# [15] = system: SW-620
# [16] = system: SN12C
# [17] = system: SK-OV-3
# [18] = system: NCI-H23
# [19] = system: SK-MEL-28
# [20] = system: UACC-257
# [21] = system: OVCAR-5
# [22] = system: OVCAR-3
# [23] = system: CCRF-CEM
# [24] = system: TK-10
# [25] = system: HOP-92
# [26] = system: NCI/ADR-RES
# [27] = system: NCI-H522
# [28] = system: A498
# [29] = system: Malme-3M
# [30] = system: HCT-116
# [31] = system: IGROV-1
# [32] = system: COLO 205
# [33] = system: T47D
# [34] = system: UO-31
# [35] = system: K562
# [36] = system: OVCAR-8
# [37] = system: CAKI-1
# [38] = system: SK-MEL-5
# [39] = system: MDA-MB-435
# [40] = system: LOX IMVI
# [41] = system: U-251
# [42] = system: RPMI-8226
# [43] = system: EKVX
# [44] = system: UACC-62
# [45] = system: RXF 393
# [46] = system: A549
# [47] = system: KM12
# [48] = system: HL-60
# [49] = system: NCI-H226
# [50] = system: HOP-62
# [51] = system: ACHN
# [52] = system: Hs-578T
# [53] = system: BT-549
# [54] = system: HT-29
# [55] = system: 786-0
# [56] = system: SR
# [57] = system: SK-MEL-2
# [58] = system: M14
# [59] = system: SNB-19
compound,measurement,setting,value
Cc1ccc(C2=Nn3c(nc4sc5c(c4c3=O)CCCC5)SC2)cc1,GI50,[1],96.4 µM (inactive)
same,GI50,[2],> 100 µM (inactive)
same,GI50,[3],> 100 µM (inactive)
same,GI50,[4],> 100 µM (inactive)
same,GI50,[5],> 100 µM (inactive)
same,GI50,[6],> 100 µM (inactive)
same,GI50,[7],> 100 µM (inactive)
same,GI50,[8],> 100 µM (inactive)
same,GI50,[9],> 100 µM (inactive)
same,GI50,[10],> 100 µM (inactive)
same,GI50,[11],> 100 µM (inactive)
same,GI50,[12],> 100 µM (inactive)
same,GI50,[13],> 100 µM (inactive)
same,GI50,[14],> 100 µM
same,GI50,[15],> 100 µM (inactive)
same,GI50,[16],> 100 µM (inactive)
same,GI50,[17],> 100 µM (inactive)
same,GI50,[18],> 100 µM (inactive)
same,GI50,[19],> 100 µM (inactive)
same,GI50,[20],> 100 µM (inactive)
same,GI50,[21],> 100 µM (inactive)
same,GI50,[22],> 100 µM (inactive)
same,GI50,[23],> 100 µM (inactive)
same,GI50,[24],> 100 µM (inactive)
same,GI50,[25],> 100 µM (inactive)
same,GI50,[26],> 100 µM (inactive)
same,GI50,[27],> 100 µM (inactive)
same,GI50,[28],> 100 µM (inactive)
same,GI50,[29],> 100 µM (inactive)
same,GI50,[30],> 100 µM (inactive)
same,GI50,[31],> 100 µM (inactive)
same,GI50,[32],> 100 µM (inactive)
same,GI50,[33],> 100 µM (inactive)
same,GI50,[34],> 100 µM (inactive)
same,GI50,[35],> 100 µM (inactive)
same,GI50,[36],> 100 µM (inactive)
same,GI50,[37],> 100 µM (inactive)
same,GI50,[38],> 100 µM (inactive)
same,GI50,[39],> 100 µM (inactive)
same,GI50,[40],> 100 µM (inactive)
same,GI50,[41],> 100 µM (inactive)
same,GI50,[42],> 100 µM (inactive)
same,GI50,[43],> 100 µM (inactive)
same,GI50,[44],> 100 µM (inactive)
same,GI50,[45],> 100 µM (inactive)
same,GI50,[46],> 100 µM (inactive)
same,GI50,[47],> 100 µM (inactive)
same,GI50,[48],> 100 µM (inactive)
same,GI50,[49],> 100 µM (inactive)
same,GI50,[50],> 100 µM (inactive)
same,GI50,[51],> 100 µM (inactive)
same,GI50,[52],35.7 µM (inactive)
same,GI50,[53],> 100 µM (inactive)
same,GI50,[54],> 100 µM (inactive)
same,GI50,[55],> 100 µM (inactive)
same,GI50,[56],> 100 µM (inactive)
Cc1ccc(NC(=O)c2cccc(OP(=O)(Nc3ccc(C)cc3)Nc3ccc(C)cc3)c2)cc1,GI50,[57],15.3 µM (inactive)
same,GI50,[1],4.14 µM (inactive)
same,GI50,[2],7.78 µM (inactive)
same,GI50,[3],43.1 µM (inactive)
same,GI50,[4],3.78 µM (inactive)
same,GI50,[5],23.3 µM (inactive)
same,GI50,[6],2.61 µM (inactive)
same,GI50,[7],3.88 µM (inactive)
same,GI50,[8],5.21 µM (inactive)
same,GI50,[9],53.3 µM (inactive)
same,GI50,[10],3.32 µM (inactive)
same,GI50,[11],7.13 µM (inactive)
same,GI50,[58],3.21 µM (inactive)
same,GI50,[12],5.62 µM (inactive)
same,GI50,[13],14 µM (inactive)
same,GI50,[14],6.01 µM
same,GI50,[15],8.18 µM (inactive)
same,GI50,[16],16.3 µM (inactive)
same,GI50,[17],24.9 µM (inactive)
same,GI50,[59],35.1 µM (inactive)
same,GI50,[18],10.9 µM (inactive)
same,GI50,[19],29.9 µM (inactive)
same,GI50,[20],11.9 µM (inactive)
same,GI50,[21],38.5 µM (inactive)
same,GI50,[22],5.83 µM (inactive)
same,GI50,[23],13.8 µM (inactive)
same,GI50,[24],7.52 µM (inactive)
same,GI50,[25],3.23 µM (inactive)
same,GI50,[26],12 µM (inactive)
same,GI50,[27],2.78 µM (inactive)
same,GI50,[28],18.1 µM (inactive)
same,GI50,[29],4.83 µM (inactive)
same,GI50,[30],4.18 µM (inactive)
same,GI50,[31],15.1 µM (inactive)
same,GI50,[32],2.32 µM (inactive)
same,GI50,[33],5.53 µM (inactive)
same,GI50,[34],4.53 µM (inactive)
same,GI50,[35],> 100 µM (inactive)
same,GI50,[36],16 µM (inactive)
same,GI50,[37],12.8 µM (inactive)
same,GI50,[38],13.2 µM (inactive)
same,GI50,[39],7.48 µM (inactive)
same,GI50,[40],10.9 µM (inactive)
same,GI50,[41],6.58 µM (inactive)
same,GI50,[43],7.94 µM (inactive)
same,GI50,[44],20.3 µM (inactive)
same,GI50,[45],1.91 µM (inactive)
same,GI50,[46],3.46 µM (inactive)
same,GI50,[47],5.5 µM (inactive)
same,GI50,[48],9.95 µM (inactive)
same,GI50,[49],8.04 µM (inactive)
same,GI50,[50],28.7 µM (inactive)
same,GI50,[51],4 µM (inactive)
same,GI50,[52],6.3 µM (inactive)
same,GI50,[53],22.2 µM (inactive)
same,GI50,[54],3.5 µM (inactive)
same,GI50,[55],19.9 µM (inactive)
same,GI50,[56],3.4 µM (inactive)
